{"source": "patent US5958881A", "about": "“Composition containing VIP for injection and a method of enhancing visualization of tissues during medical procedures” (priority 1992, dated 1999)", "key": {"[1]": {"procedure": "During the period of observation, vital signs (blood pressure and pulse) and symptoms were continuously recorded. The protocol was such that if the blood pressure dropped by more than 20 mm Hg systolic or diastolic or the pulse increased by more than 30 beats per minute for 2 minutes, intravenous saline was to be administered and the study terminated."}, "[2]": {"system": "gastrointestinal motility", "settings": "controlled studies; cited from earlier work"}, "[3]": {"settings": "in vivo; cited from earlier work"}, "[4]": {"settings": "dose dependent; cited from earlier work"}, "[5]": {"system": "opossum duodenum", "settings": "cited from earlier work"}, "[6]": {"system": "gastroduodenal motility", "settings": "cited from earlier work"}, "[7]": {"system": "antroduodenal activity", "settings": "1 mg IV followed by 2 mg IV over 2 hours; cited from earlier work"}}, "note": "Like-named read-outs stand apart in the source and are kept apart here."}
{"compound": "CC[C@H](C)[C@H](NC(=O)[C@H](CO)NC(=O)[C@H](CC(N)=O)NC(=O)[C@H](CC(C)C)NC(=O)[C@H](Cc1ccc(O)cc1)NC(=O)[C@H](CCCCN)NC(=O)[C@H](CCCCN)NC(=O)[C@@H](NC(=O)[C@H](C)NC(=O)[C@H](CCSC)NC(=O)[C@H](CCC(N)=O)NC(=O)[C@H](CCCCN)NC(=O)[C@H](CCCN=C(N)N)NC(=O)[C@H](CC(C)C)NC(=O)[C@H](CCCN=C(N)N)NC(=O)[C@@H](NC(=O)[C@H](Cc1ccc(O)cc1)NC(=O)[C@H](CC(N)=O)NC(=O)[C@H](CC(=O)O)NC(=O)[C@@H](NC(=O)[C@H](Cc1ccccc1)NC(=O)[C@@H](NC(=O)[C@H](C)NC(=O)[C@H](CC(=O)O)NC(=O)[C@H](CO)NC(=O)[C@@H](N)Cc1c[nH]cn1)C(C)C)[C@@H](C)O)[C@@H](C)O)C(C)C)C(=O)N[C@@H](CC(C)C)C(=O)N[C@@H](CC(N)=O)C(N)=O", "note": "[VIP, vasoactive intestinal peptide]", "values": [{"measurement": "need to terminate the study", "setting": "[1]; criterion: blood pressure drop >20 mm Hg or pulse increase >30 beats per minute for 2 minutes", "value": "none of the three patients"}, {"measurement": "effects on blood pressure and pulse", "setting": "[1]; first patient, higher dose level (20 ng/kg)", "value": "not seen"}, {"measurement": "effect on blood pressure and pulse", "setting": "[1]; first patient, initial dose of 5 ng VIP per kg", "value": "slight decrease in systolic pressure and increase in pulse"}, {"measurement": "effect on blood pressure", "setting": "[1]; gastroparetic dose", "value": "without a significant effect"}, {"measurement": "side effects of nausea and vomiting", "setting": "[1]; method of the invention", "value": "free of the negative side effects of nausea and vomiting"}, {"measurement": "change in blood pressure or pulse", "setting": "[1]; second patient, any of the dosages tested (5, 20, 100 ng/kg)", "value": "no significant change"}, {"measurement": "change in blood pressure or pulse", "setting": "[1]; third patient, any dose of VIP administered", "value": "no significant change"}, {"measurement": "adverse reactions such as nausea or vomiting", "setting": "[1]; three patients, 5-300 ng/kg IV", "value": "None of the three patients"}]}
{"compound": "CN1[C@@H]2CC[C@H]1C[C@@H](OC(=O)C(CO)c1ccccc1)C2", "note": "(some centres unmarked) [atropine]", "values": [{"measurement": "improvement in patient tolerance or facilitation of endoscopy", "setting": "[2]", "value": "failed to demonstrate any beneficial effects"}, {"measurement": "cardiac arrhythmias", "setting": "[3]", "value": "increased risk"}, {"measurement": "undesirable side effects", "setting": "[3]", "value": "blurred vision, headache, and urinary retention"}]}
{"compound": "glucagon", "values": [{"measurement": "dose at which nausea and vomiting can appear", "setting": "[4]", "value": 1, "unit": "mg"}, {"measurement": "effect on duodenum muscle", "setting": "[5]", "value": "stimulated relaxation"}, {"measurement": "gastroduodenal motility", "setting": "[6]; dose-dependent", "value": "variable reduction"}, {"measurement": "minimally effective dose", "setting": "[6]; reduction in gastroduodenal motility", "value": 0.5, "unit": "mg"}, {"measurement": "cycle length and time between contractile activity in the duodenum", "setting": "[7]", "value": "significantly increased"}, {"measurement": "mean pressure period", "setting": "[7]", "value": "decreased"}]}
